# Laboratory results published in ChEMBL document CHEMBL4308839, “Recent Progress in the Discovery of Allosteric Inhibitors of Kidney-Type Glutaminase” (J Med Chem, 2018).
# Target: T1, Glutaminase kidney isoform, mitochondrial (Homo sapiens, UniProt O94925)
# T1 sequence (O94925 whole entry): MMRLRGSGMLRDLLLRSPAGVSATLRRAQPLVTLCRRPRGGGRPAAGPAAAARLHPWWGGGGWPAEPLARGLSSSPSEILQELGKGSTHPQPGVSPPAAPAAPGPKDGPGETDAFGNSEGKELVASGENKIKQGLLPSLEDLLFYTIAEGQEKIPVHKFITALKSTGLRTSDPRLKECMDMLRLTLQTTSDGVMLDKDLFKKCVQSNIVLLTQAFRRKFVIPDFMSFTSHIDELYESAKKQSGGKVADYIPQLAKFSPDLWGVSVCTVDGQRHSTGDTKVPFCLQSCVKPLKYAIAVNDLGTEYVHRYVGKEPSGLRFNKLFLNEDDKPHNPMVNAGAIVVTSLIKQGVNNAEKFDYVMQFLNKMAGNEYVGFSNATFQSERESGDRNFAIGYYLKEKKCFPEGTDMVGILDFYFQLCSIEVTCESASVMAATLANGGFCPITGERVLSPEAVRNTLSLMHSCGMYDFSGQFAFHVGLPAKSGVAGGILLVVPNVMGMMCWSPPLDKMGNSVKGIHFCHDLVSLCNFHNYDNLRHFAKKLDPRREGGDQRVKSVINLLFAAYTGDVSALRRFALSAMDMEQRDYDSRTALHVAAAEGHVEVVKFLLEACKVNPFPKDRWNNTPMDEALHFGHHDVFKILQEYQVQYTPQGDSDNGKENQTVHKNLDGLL
# Assay: Inhibition of GAC (unknown origin) assessed as NADH formation using 1.8 to 13 mM glutamine as substrate preincubated for 60 mins by resorufin dye based assay
row,Compound,IC50 [µM]
1,O=C(Cc1ccccn1)Nc1nnc([C@H]2CC[C@H](c3nnc(NC(=O)Cc4ccccn4)s3)C2)s1,< 0.1
2,O=C(Cc1ccccn1)Nc1nnc([C@@H]2CC[C@H](c3nnc(NC(=O)Cc4ccccn4)s3)C2)s1,0.5 to 1
3,O=C(Cc1ccccn1)Nc1nnc(C[C@H]2CC[C@H](Cc3nnc(NC(=O)Cc4ccccn4)s3)CC2)s1,0.5 to 1
4,O=C(Cc1ccccn1)Nc1nnc(C2CCCCC(c3nnc(NC(=O)Cc4ccccn4)s3)C2)s1 (centres undefined),1 to 2
5,CC(=O)Nc1ccc([C@H]2CCC[C@H](c3ccc(NC(C)=O)nn3)C2)nn1,2 to 10
6,O=C(Cc1ccccn1)Nc1nnc([C@@H]2CCC[C@H](c3nnc(NC(=O)Cc4ccccn4)s3)C2)s1,1 to 2
7,O=C(Cc1ccccn1)Nc1ccc([C@H]2CCC[C@H](c3ccc(NC(=O)Cc4ccccn4)nn3)C2)nn1,< 0.1
8,O=C(Cc1c[nH]c2ccccc12)Nc1nnc(CCCCc2nnc(NC(=O)Cc3c[nH]c4ccccc34)s2)s1,< 0.1
9,O=C(Cc1ccccn1)Nc1nnc(C[C@@H]2C[C@H]2Cc2nnc(NC(=O)Cc3ccccn3)s2)s1 (racemic),0.5 to 1
10,O=C(Cc1ccccn1)Nc1nnc(CC2CCC(Cc3nnc(NC(=O)Cc4ccccn4)s3)C2)s1 (centres undefined),2 to 10
11,O=C(Cc1ccccc1)Nc1nnc([C@H]2CCC[C@H](c3nnc(NC(=O)Cc4ccccc4)s3)C2)s1,< 0.1
12,O=C(CCCC(=O)c1ccccc1)Nc1nnc(CCCCc2nnc(NC(=O)CCCC(=O)c3ccccc3)s2)s1,< 0.1
13,O=C(Cc1ccccn1)Nc1nnc([C@@H]2CC[C@@H](c3nnc(NC(=O)Cc4ccccn4)s3)C2)s1,< 0.1
14,O=C(Cc1ccccn1)Nc1nnc(CC2CC(Cc3nnc(NC(=O)Cc4ccccn4)s3)C2)s1 (centres undefined),2 to 10
15,O=C(Cc1ccccn1)Nc1ccc([C@@H]2CCC[C@H](c3ccc(NC(=O)Cc4ccccn4)nn3)C2)nn1,< 0.1
16,CC(=O)Nc1ccc([C@@H]2CCC[C@H](c3ccc(NC(C)=O)nn3)C2)nn1,< 0.1
17,O=C(Cc1ccccn1)Nc1nnc([C@H]2CCC[C@H](c3nnc(NC(=O)Cc4ccccn4)s3)C2)s1,< 0.1
18,O=C(Cc1ccccn1)Nc1nnc([C@@H]2CCC[C@@H](c3nnc(NC(=O)Cc4ccccn4)s3)C2)s1,1 to 2

# Target: T2, Glutaminase kidney isoform, mitochondrial (Mus musculus, UniProt D3Z7P3)
# T2 sequence (D3Z7P3 whole entry): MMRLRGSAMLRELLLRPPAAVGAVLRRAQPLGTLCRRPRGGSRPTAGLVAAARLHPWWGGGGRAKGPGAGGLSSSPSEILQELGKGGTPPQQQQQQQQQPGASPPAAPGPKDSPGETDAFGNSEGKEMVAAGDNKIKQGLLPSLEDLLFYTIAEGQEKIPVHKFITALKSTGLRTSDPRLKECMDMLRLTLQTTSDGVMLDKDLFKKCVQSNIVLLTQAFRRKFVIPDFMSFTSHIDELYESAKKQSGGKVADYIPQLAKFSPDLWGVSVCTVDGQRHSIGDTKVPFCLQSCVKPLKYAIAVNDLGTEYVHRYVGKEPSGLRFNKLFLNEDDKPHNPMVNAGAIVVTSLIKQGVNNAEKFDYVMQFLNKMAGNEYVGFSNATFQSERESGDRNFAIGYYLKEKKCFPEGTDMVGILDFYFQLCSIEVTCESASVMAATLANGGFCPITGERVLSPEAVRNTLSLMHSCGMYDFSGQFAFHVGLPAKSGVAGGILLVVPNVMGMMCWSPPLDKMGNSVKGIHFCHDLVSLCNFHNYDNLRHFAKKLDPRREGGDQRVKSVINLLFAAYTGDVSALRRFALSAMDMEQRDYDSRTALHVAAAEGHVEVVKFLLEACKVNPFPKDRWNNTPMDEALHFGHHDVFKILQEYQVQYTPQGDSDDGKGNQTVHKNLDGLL
# Assay: Inhibition of mouse kidney glutaminase assessed as ammonia formation using glutamine as substrate by Nessler's reagent based assay
row,Compound,IC50 [µM]
1,O=C(Cc1cccc(OC(F)(F)F)c1)Nc1ccc(CCCCc2nnc(NC(=O)Cc3ccccn3)s2)cn1,0.05 to 0.1

# Species on record: Mus musculus
# Assay: (§1) Inhibition of mouse brain glutaminase assessed as ammonia formation at 0.1 uM using glutamine as substrate by Nessler's reagent based assay relative to control
row,Compound,inhibition [%]
1,O=C(Cc1cccc(OC(F)(F)F)c1)Nc1cnc(CCCCc2nnc(NC(=O)Cc3ccccn3)s2)cn1,< 25

# Target: not listed separately
# Assay: as §1
row,Compound,IC50 [µM]
1,O=C(Cc1cccc(OC(F)(F)F)c1)Nc1ccc(N2CCC(c3nnc(NC(=O)Cc4ccccn4)s3)CC2)cn1,1 to 2
2,O=C(Cc1cccc(OC(F)(F)F)c1)Nc1ccc(CC2CC(c3nnc(NC(=O)Cc4ccccn4)s3)C2)nn1 (centres undefined),< 0.025
3,O=C(Cc1ccccn1)Nc1ccc(N2CCC(c3nnc(NC(=O)Cc4cccc(OC(F)(F)F)c4)s3)CC2)nn1,< 0.05
4,O=C(Cc1cccc(OC(F)(F)F)c1)Nc1ccc(N2CCCC(c3nnc(NC(=O)Cc4ccccn4)s3)C2)nn1 (centres undefined),0.05 to 0.2
5,O=C(Cc1cccc(OC(F)(F)F)c1)Nc1ccc(N2CCC(c3nnc(NC(=O)Cc4ccccn4)s3)CC2)nn1,< 0.05

# Target: T1, Glutaminase kidney isoform, mitochondrial
# Assay: Inhibition of kidney-type glutaminase in human BT20 cells assessed as reduction in glutamate level
# Format: cell-based
row,Compound,IC50 [µM]
1,Cn1ccc(CC(=O)Nc2nnc([C@H]3C[C@]4(C[C@H](c5nnc(NC(=O)Cc6ccn(C)n6)s5)C4)C3)s2)n1 (some centres undefined),0.0005
2,O=C(Cc1cccc(OC(F)(F)F)c1)Nc1ccc(C[C@@H]2CC[C@H](c3nnc(NC(=O)Cc4ccccn4)s3)C2)nn1,0.0001
3,Cn1ccc(CC(=O)Nc2nnc([C@H]3C[C@@]4(C[C@H](c5nnc(NC(=O)Cc6ccn(C)n6)s5)C4)C3)s2)n1 (some centres undefined),0.0027
4,O=C(Cc1cccc(OC(F)(F)F)c1)Nc1ccc(C[C@H]2C[C@@H](c3nnc(NC(=O)Cc4ccccn4)s3)C2)nn1,0.0002

# Target: T1, Glutaminase kidney isoform, mitochondrial
# Assay: Inhibition of GAC (unknown origin) assessed as NADH formation using 10 mM glutamine as substrate preincubated for 60 mins
row,Compound,IC50 [µM]
1,O=C(Cc1ccccc1)Nc1ccc(CCCCc2ccc(NC(=O)Cc3ccccc3)nn2)nn1,0.01
2,O=C(Cc1ccccc1)Nc1ccc(CCCCc2nnc(NC(=O)Cc3ccccc3)s2)nn1,0.08
3,CN(C)c1ccc(CC(=O)Nc2nnc(CCCCc3nnc(NC(=O)Cc4ccc(N(C)C)cc4)s3)s2)cc1,0.24

# Target: T1, Glutaminase kidney isoform, mitochondrial
# Assay: Inhibition of GAC (unknown origin) using 1 mM glutamine as substrate preincubated for 10 mins by resorufin dye based assay
row,Compound,IC50 [µM]
1,O=C(NCc1ccccc1)c1cn(CCCCc2cc3cc(Cc4ccccc4)[nH]c3nn2)nn1,≤ 0.1
2,O=C(Cc1ccccc1)Nc1ccn(CCCCc2nnc(NC(=O)Cc3ccccc3)s2)c(=O)n1,≤ 0.1
3,O=C(Cc1ccccn1)Nc1ccc([C@H]2CCN(c3nnc(C(=O)NCc4cc(C(F)(F)F)ccn4)s3)C2)nn1,0.1 to 0.5
4,O=C(Cc1ccccc1)Nc1ccc(CCCCn2ccc(NC(=O)Cc3ccccc3)nc2=O)nn1,≤ 0.1
5,O=C(NCc1ccccn1)c1cn(CCCCc2nnc(C(=O)NCc3cccc(OC(F)(F)F)c3)s2)nn1,< 0.1
6,O=C(Cc1cccc(OC(F)(F)F)c1)Nc1ccc(CCCCc2nnc(C(=O)NCc3ccccn3)s2)nn1,< 0.1
7,Cc1ccc(CNC(=O)c2cn(CCCCc3cc4cc(-c5ccccc5F)[nH]c4nn3)nn2)cn1,≤ 0.1
8,O=C(Cc1ccccn1)Nc1ccc([C@@H]2CCN(c3nnc(C(=O)NCc4cc(C(F)(F)F)ccn4)s3)C2)nn1,≤ 0.1
9,O=C(Cc1cccc(OC(F)(F)F)c1)Nc1ccc(C2CCN(c3nnc(NC(=O)Cc4ccccn4)s3)C2)nn1 (centres undefined),≤ 0.1
10,O=C(Cc1ccccc1)Nc1ccn(CCCCc2cc3cc(Cc4ccccc4)[nH]c3nn2)c(=O)c1,≤ 0.1
11,O=C(Cc1ccccc1)Nc1ccn(CCC(F)Cn2cc(C(=O)NCc3cccc(OC(F)(F)F)c3)nn2)c(=O)c1 (centres undefined),≤ 0.1
12,O=C(Cc1ccccc1)Nc1nnc(CCCCc2cc3cc(Cc4ccccc4)[nH]c3nn2)s1,≤ 0.1
13,O=C(Cc1cccc(OC(F)(F)F)c1)Nc1ccc(N2CCC(c3nnc(NC(=O)Cc4ccccn4)s3)C2)nn1 (centres undefined),≤ 0.1
14,O=C(Cc1ccccc1)Nc1ccn(CC(F)CCn2cc(C(=O)NCc3cccc(OC(F)(F)F)c3)nn2)c(=O)c1 (centres undefined),≤ 0.1
15,O=C(Cc1ccccc1)Nc1ccn(CCCCn2cc(C(=O)NCc3cccc(OC(F)(F)F)c3)nn2)c(=O)c1,≤ 0.1
16,O=C(Cc1ccccc1)Nc1ccn(CCCCc2nnc(NC(=O)Cc3ccccc3)s2)c(=O)c1,≤ 0.1

# Target: T1, Glutaminase kidney isoform, mitochondrial
# Assay: Inhibition of human KGA (1 to 669 residues) preincubated for 20 mins using 7 mM glutamine as substrate
row,Compound,IC50 [µM]
1,O=C(Nc1nnc(CCOCCc2nnc(NC(=O)c3ccccc3)s2)s1)c1ccccc1,10.2

# Target: T2, Glutaminase kidney isoform, mitochondrial
# Assay: (§2) Inhibition of mouse kidney glutaminase assessed as ammonia formation at 0.1 uM using glutamine as substrate by Nessler's reagent based assay relative to control
row,Compound,IC50 [µM]
1,O=C(Cc1cccc(OC(F)(F)F)c1)Nc1ccc(N2CCC(c3nnc(NC(=O)Cc4ccccn4)s3)CC2)cn1,1 to 2
2,O=C(Cc1cccc(OC(F)(F)F)c1)Nc1ccc(CC2CC(c3nnc(NC(=O)Cc4ccccn4)s3)C2)nn1 (centres undefined),< 0.025
3,O=C(Cc1ccccn1)Nc1ccc(N2CCC(c3nnc(NC(=O)Cc4cccc(OC(F)(F)F)c4)s3)CC2)nn1,< 0.05
4,O=C(Cc1cccc(OC(F)(F)F)c1)Nc1ccc(N2CCCC(c3nnc(NC(=O)Cc4ccccn4)s3)C2)nn1 (centres undefined),0.05 to 0.2
5,O=C(Cc1cccc(OC(F)(F)F)c1)Nc1ccc(N2CCC(c3nnc(NC(=O)Cc4ccccn4)s3)CC2)nn1,< 0.05

# Target: T3, Glutaminase kidney isoform, mitochondrial (Mus musculus) (UniProt D3Z7P3)
# T3 sequence (whole entry): T2 sequence (D3Z7P3 whole entry)
# Assay: as §2
row,Compound,inhibition [%]
1,O=C(Cc1cccc(OC(F)(F)F)c1)Nc1cnc(CCCCc2nnc(NC(=O)Cc3ccccn3)s2)cn1,< 25

# Target: T1, Glutaminase kidney isoform, mitochondrial
# Assay: Inhibition of human KGA (63 to 669 residues) preincubated for 15 mins using 50 mM glutamine as substrate by resorufin dye based assay
row,Compound,IC50 [µM]
1,O=C(Nc1nnc(N[C@@H]2CCN(c3cccnn3)C2)s1)[C@@H](c1cccc(OC(F)(F)F)c1)N1CCC1,0.1
2,CO[C@H](C(=O)Nc1nnc(N[C@@H]2CCN(c3cc(Cl)cnn3)C2)s1)c1ccccc1,0.04
3,CO[C@H](C(=O)Nc1ccc(N2CC[C@@H](Nc3cccnn3)C2)nn1)c1cccc(OC(F)F)c1,0.025

# Target: not listed separately
# Assay: Inhibition of mouse brain glutaminase assessed as ammonia formation using glutamine as substrate by Nessler's reagent based assay
row,Compound,IC50 [µM]
1,O=C(Cc1cccc(OC(F)(F)F)c1)Nc1ccc(CCCCc2nnc(NC(=O)Cc3ccccn3)s2)cn1,0.05 to 0.1
